Results: PubChem BioAssay AID226 (DTP/NCI, 2004)
“And” between values parts separate entries of the source, which are not always exact repeats. Equal values may be shown once. Toxic doses and inconclusive results are not listed.

Test system: B6C3F1 mice, intracerebral ependymoblastoma, median survival T/C
Assay: NCI In Vivo Anticancer Drug Screen. Data for tumor model Ependymoblastoma (intracerebral) in B6C3F1 mice
Details: endpoint: median survival time, higher = longer survival
Method: The antitumor activity of compounds was measured in mice bearing transplantable tumors. Survival or tumor size were measured and the results are expressed as the measurement made in the treated group (T) divided by the measurement made in the vehicle treated control group (C). The tumor model used in this assay is Ependymoblastoma (intracerebral) in B6C3F1 mice

[1] = dose: 32.0 mg/kg/injection, schedule: Q01DX005 (ip), vehicle: saline with Tween-80
[2] = dose: 64.0 mg/kg/injection, schedule: Q01DX005 (ip), vehicle: saline with Tween-80
[3] = dose: 128.0 mg/kg/injection, schedule: Q01DX005 (ip), vehicle: saline with Tween-80
[4] = dose: 8.0 mg/kg/injection, schedule: Q01DX005 (ip), vehicle: Klucel (hydroxypropylcellulose) (HPC)
[5] = dose: 1.0 mg/kg/injection, schedule: Q01DX005 (ip), vehicle: saline
[6] = dose: 2.0 mg/kg/injection, schedule: Q01DX005 (ip), vehicle: saline
[7] = dose: 4.0 mg/kg/injection, schedule: Q01DX005 (ip), vehicle: Klucel (hydroxypropylcellulose) (HPC)
[8] = dose: 4.0 mg/kg/injection, schedule: Q01DX005 (ip), vehicle: saline
[9] = dose: 8.0 mg/kg/injection, schedule: Q01DX005 (ip), vehicle: saline
[10] = dose: 16.0 mg/kg/injection, schedule: Q01DX005 (ip), vehicle: saline
[11] = dose: 32.0 mg/kg/injection, schedule: Q01DX005 (ip), vehicle: saline
[12] = dose: 1.0 mg/kg/injection, schedule: Q01DX005 (ip), vehicle: Klucel (hydroxypropylcellulose) (HPC)
[13] = dose: 2.0 mg/kg/injection, schedule: Q01DX005 (ip), vehicle: Klucel (hydroxypropylcellulose) (HPC)

## O=C(N/N=C\c1cc(Br)cc(Br)c1O)N/N=C/c1cc(Br)cc(Br)c1O
[1]
  T/C: 109 % of control
[2]
  T/C: 106 % of control
[3]
  T/C: 105 % of control
dose: 256.0 mg/kg/injection, schedule: Q01DX005 (ip), vehicle: saline with Tween-80
  T/C: 106 % of control
dose: 512.0 mg/kg/injection, schedule: Q01DX005 (ip), vehicle: saline with Tween-80
  T/C: 99 % of control

## O=NN(CCCl)C(=O)NC1CCCN(Cc2ccccc2)C1 (stereo unspecified)
dose: 50.0 mg/kg/injection, schedule: Q01DX001 (ip), vehicle: distilled water + Tween-80
  T/C: 178 % of control
dose: 100.0 mg/kg/injection, schedule: Q01DX001 (ip), vehicle: distilled water + Tween-80
  T/C: 223 % of control

## CC(=O)O[C@]1(C(C)=O)CC[C@H]2[C@@H]3C[C@H](C)C4=CC(=O)CC[C@]4(C)[C@H]3CC[C@@]21C
[4]
  T/C: 96 % of control and 104 % of control
dose: 16.0 mg/kg/injection, schedule: Q01DX005 (ip), vehicle: Klucel (hydroxypropylcellulose) (HPC)
  T/C: 101 % of control and 122 % of control
dose: 32.0 mg/kg/injection, schedule: Q01DX005 (ip), vehicle: Klucel (hydroxypropylcellulose) (HPC)
  T/C: 101 % of control and 112 % of control
dose: 64.0 mg/kg/injection, schedule: Q01DX005 (ip), vehicle: Klucel (hydroxypropylcellulose) (HPC)
  T/C: 92 % of control and 97 % of control
dose: 128.0 mg/kg/injection, schedule: Q01DX005 (ip), vehicle: Klucel (hydroxypropylcellulose) (HPC)
  T/C: 95 % of control and 98 % of control
dose: 256.0 mg/kg/injection, schedule: Q01DX005 (ip), vehicle: Klucel (hydroxypropylcellulose) (HPC)
  T/C: 94 % of control and 97 % of control

## Cc1ncc(CNC(=O)N(CCCl)N=O)c(N)n1
dose: 8.0 mg/kg/injection, schedule: Q01DX001 (ip), vehicle: water
  T/C: 108 % of control and 121 % of control
dose: 16.0 mg/kg/injection, schedule: Q01DX001 (ip), vehicle: water
  T/C: 175 % of control
dose: 32.0 mg/kg/injection, schedule: Q01DX001 (ip), vehicle: water
  T/C: 262 % of control and 267 % of control

## COc1ccc2c(c1O)-c1cccc3c1[C@@H](C2)N(CCCl)CC3
dose: 0.25 mg/kg/injection, schedule: Q01DX005 (ip), vehicle: saline
  T/C: 105 % of control
dose: 0.5 mg/kg/injection, schedule: Q01DX005 (ip), vehicle: saline
  T/C: 100 % of control
[5]
  T/C: 96 % of control
[6]
  T/C: 99 % of control and 87 % of control
[7]
  T/C: 98 % of control
[8]
  T/C: 104 % of control
[4]
  T/C: 98 % of control
[9]
  T/C: 93 % of control
[10]
  T/C: 88 % of control
[11]
  T/C: 86 % of control

## [Cl][Pt+2][Cl].[NH-]C1CCC1.[NH-]C1CCC1
dose: 10.0 mg/kg/injection, schedule: Q01DX005 (ip), vehicle: dextrose
  T/C: 103 % of control
dose: 20.0 mg/kg/injection, schedule: Q01DX005 (ip), vehicle: dextrose
  T/C: 103 % of control
dose: 80.0 mg/kg/injection, schedule: Q01DX005 (ip), vehicle: dextrose
  T/C: 90 % of control

## CC1=C(/C=C/C(C)=C/C=C/C(C)=C/C(=O)O)C(C)(C)CCC1
dose: 8.0 mg/kg/injection, schedule: Q01DX005 (ip), vehicle: saline with Tween-80
  T/C: 99 % of control
dose: 16.0 mg/kg/injection, schedule: Q01DX005 (ip), vehicle: saline with Tween-80
  T/C: 119 % of control
[1]
  T/C: 115 % of control
[2]
  T/C: 118 % of control
[3]
  T/C: 109 % of control

## CCC(C)N(C)/N=N/c1nc[nH]c1C(N)=O (stereo unspecified)
[1]
  T/C: 151 % of control
[2]
  T/C: 153 % of control
[3]
  T/C: 153 % of control

## COc1ccc2c(c1OC(C)=O)-c1cc(OC(C)=O)cc3c1C(C2)N(C(=O)CN(CCCl)CCCl)CC3 (stereo unspecified)
dose: 12.5 mg/kg/injection, schedule: Q01DX005 (ip), vehicle: DMSO
  T/C: 108 % of control

## CSc1nc(N)nc2c1ncn2C1OC(CO)C(O)C1O (stereo unspecified)
dose: 50.0 mg/kg/injection, schedule: Q01DX005 (ip), vehicle: suspension in saline
  T/C: 108 % of control
dose: 100.0 mg/kg/injection, schedule: Q01DX005 (ip), vehicle: suspension in saline
  T/C: 109 % of control
dose: 200.0 mg/kg/injection, schedule: Q01DX005 (ip), vehicle: suspension in saline
  T/C: 100 % of control
dose: 400.0 mg/kg/injection, schedule: Q01DX005 (ip), vehicle: suspension in saline
  T/C: 96 % of control

## NC(=S)Nc1cccc2ccccc12
dose: 1.56 mg/kg/injection, schedule: Q01DX005 (ip), vehicle: saline with Tween-80
  T/C: 92 % of control
dose: 3.12 mg/kg/injection, schedule: Q01DX005 (ip), vehicle: saline with Tween-80
  T/C: 100 % of control and 88 % of control
dose: 6.25 mg/kg/injection, schedule: Q01DX005 (ip), vehicle: saline with Tween-80
  T/C: 92 % of control and 93 % of control
dose: 12.5 mg/kg/injection, schedule: Q01DX005 (ip), vehicle: saline with Tween-80
  T/C: 91 % of control
dose: 25.0 mg/kg/injection, schedule: Q01DX005 (ip), vehicle: saline with Tween-80
  T/C: 88 % of control and 89 % of control
dose: 50.0 mg/kg/injection, schedule: Q01DX005 (ip), vehicle: saline with Tween-80
  T/C: 91 % of control

## COc1cc(NS(C)(=O)=O)ccc1Nc1c2ccccc2nc2ccccc12
[12]
  T/C: 110 % of control
[5]
  T/C: 103 % of control and 104 % of control
dose: 1.0 mg/kg/injection, schedule: Q01DX005 (ip), vehicle: water
  T/C: 94 % of control and 96 % of control (2×)
[13]
  T/C: 99 % of control
[6]
  T/C: 107 % of control and 112 % of control
dose: 2.0 mg/kg/injection, schedule: Q01DX005 (ip), vehicle: water
  T/C: 94 % of control and 100 % of control and 101 % of control
[7]
  T/C: 103 % of control
[8]
  T/C: 103 % of control
dose: 4.0 mg/kg/injection, schedule: Q01DX005 (ip), vehicle: water
  T/C: 96 % of control and 100 % of control and 108 % of control
[9]
  T/C: 106 % of control and 112 % of control
dose: 8.0 mg/kg/injection, schedule: Q01DX005 (ip), vehicle: water
  T/C: 100 % of control and 107 % of control and 112 % of control

## N[C@H](C(=O)O)[C@@H]1CC(Cl)=NO1
dose: 1.0 mg/kg/injection, schedule: Q01DX005 (ip), vehicle: saline + Tween-80 + alcohol
  T/C: 112 % of control
dose: 2.0 mg/kg/injection, schedule: Q01DX005 (ip), vehicle: saline + Tween-80 + alcohol
  T/C: 106 % of control
[6]
  T/C: 97 % of control and 111 % of control
dose: 4.0 mg/kg/injection, schedule: Q01DX005 (ip), vehicle: saline + Tween-80 + alcohol
  T/C: 114 % of control
[8]
  T/C: 104 % of control and 121 % of control
dose: 8.0 mg/kg/injection, schedule: Q01DX005 (ip), vehicle: saline + Tween-80 + alcohol
  T/C: 118 % of control
[9]
  T/C: 111 % of control and 117 % of control
dose: 16.0 mg/kg/injection, schedule: Q01DX005 (ip), vehicle: saline + Tween-80 + alcohol
  T/C: 89 % of control
[10]
  T/C: 109 % of control and 124 % of control
[11]
  T/C: 111 % of control

## COc1ccc(C(=O)/C(Br)=C/C(=O)O)cc1
dose: 10.0 mg/kg/injection, schedule: Q01DX005 (ip), vehicle: saline
  T/C: 92 % of control and 104 % of control
dose: 20.0 mg/kg/injection, schedule: Q01DX005 (ip), vehicle: saline
  T/C: 96 % of control and 103 % of control
dose: 40.0 mg/kg/injection, schedule: Q01DX005 (ip), vehicle: saline
  T/C: 94 % of control and 104 % of control

## CN(C)/N=N/c1[nH]ncc1C(N)=O
[11]
  T/C: 150 % of control
dose: 64.0 mg/kg/injection, schedule: Q01DX005 (ip), vehicle: saline
  T/C: 176 % of control
[3]
  T/C: 151 % of control
dose: 128.0 mg/kg/injection, schedule: Q01DX005 (ip), vehicle: saline
  T/C: 155 % of control
dose: 256.0 mg/kg/injection, schedule: Q01DX005 (ip), vehicle: saline
  T/C: 96 % of control

## COc1ccc(CC2C(=O)NC(C)C(=O)N(C)C3C(=O)N(C)C(Cc4ccc(O)c(c4)Oc4ccc(cc4)C3O)C(=O)NC(C)C(=O)NC(C)C(=O)N2C)cc1 (stereo unspecified)
dose: 0.25 mg/kg/injection, schedule: Q01DX005 (ip), vehicle: Klucel (hydroxypropylcellulose) (HPC)
  T/C: 103 % of control
dose: 0.25 mg/kg/injection, schedule: Q01DX005 (ip), vehicle: saline with Tween-80
  T/C: 105 % of control
dose: 0.5 mg/kg/injection, schedule: Q01DX005 (ip), vehicle: Klucel (hydroxypropylcellulose) (HPC)
  T/C: 107 % of control
dose: 0.5 mg/kg/injection, schedule: Q01DX005 (ip), vehicle: saline with Tween-80
  T/C: 114 % of control
[12]
  T/C: 106 % of control
dose: 1.0 mg/kg/injection, schedule: Q01DX005 (ip), vehicle: saline with Tween-80
  T/C: 113 % of control
[13]
  T/C: 96 % of control
dose: 2.0 mg/kg/injection, schedule: Q01DX005 (ip), vehicle: saline with Tween-80
  T/C: 114 % of control
dose: 4.0 mg/kg/injection, schedule: Q01DX005 (ip), vehicle: saline with Tween-80
  T/C: 97 % of control
